# Legend:
# recombinant integrase = molecular target: T1, recombinant integrase (Human immunodeficiency virus type 1 group M subtype B, UniProt P12497); assay: In vitro maturation reaction with recombinant integrase; assay type: biochemical, HIV-1
# T1 construct: with the aid of recombinant integrase
# [1] = tested on: maturation reaction in primary CD4+ T lymphocytes infected with Δenv virus of wild-type; assay: Efficacy of maturation during infection of primary CD4+ T lymphocytes; assay type: cell-based, HIV-1; details: 5 μM inhibitor
# Source text: In addition, the accumulation kinetics of the 1-LTR and 2-LTR bands are similar in the primary cells with respect to cells of cellular line.
# [2] = tested on: maturation reaction (3′-processing); assay: Effect of INSTI on the maturation reaction (3′-processing) in infected cells (Example 4); assay type: cell-based, HIV-1; details: for effect on the maturation step: 500 nM inhibitor; for maturation efficacy: 2.5 μM inhibitor
# Source text: Quantification of 3′ non-mature and mature linear forms of the DNA of HIV-1 by LM-PCR. The strategy used in order to quantify the linear viral DNA is based on the ligation of a linking oligonucleotide (or “linker”) at the ends of the viral ends followed by two PCRs according to the protocol of Pierson et al. (Pierson et al. (2002) Journal of Virology 17:8518-8531). Major improvements have been made in order to implement an approach of quantitative PCR type.
# maturation reaction = assay: Confirmation of the effect on maturation with a radiolabeled probe derived from the PCR; assay type: cell-based, HIV-1; details: 5 μM inhibitor
# Source text: The different effects of each of the inhibitors on the maturation reaction were confirmed with the aid of a radiolabeled probe derived from the PCR.
# viral integration = assay: Inhibition of viral integration by INSTI (Example 4); assay type: cell-based, HIV-1; details: for IC50: Human immunodeficiency virus 1, read-out: IC50 for inhibition of viral integration
# [3] = tested on: 2-LTR or 1-LTR bands of HIV-1 viral DNA; assay: Accumulation of 2-LTR and 1-LTR bands with INSTI (Example 4); assay type: cell-based; details: for 2 LTR bands as share of the viral forms: 500 nM to 5 μM, 48 h post-infection; for accumulation of 2-LTR or 1-LTR bands on varying the concentration: from 500 nM to 5 μM
# Method: Quantification of the 1-LTR bands. The quantifications were carried out by real-time PCR on a Light Cycler apparatus (Roche Diagnostics, Meylan, France) with the aid of the second derivative method provided with the Light Cycler quantification software, version 3.5 (Roche Diagnostics). The number of DNA copies of the 1-LTR bands was determined by quantifying the viral molecules with the aid of primers which hybridize to the genes gag and env, as well as to hybridization probes. The reaction mixtures contain 1× LightCycler FastStart DNA master HybProbes buffer (Roche Diagnostics reference 12239272001), 4 mM MgCl2, 300 nM of 1-LTR LA1 primers (5′-[…]-3′, SEQ ID NO: 1) and 1-LTR LA16 (5′-[…]-3′, SEQ ID NO: 2) and 200 nM of LTR FL* hybridization probes (5′-[…]^a-3′, SEQ ID NO: 3) and LTR LC*(5′-[…]^b-3′, SEQ ID NO: 4) (^aFluorescein at the 3′ end; ^bLC red 640 at the 5′ end and phosphorylated at the 3′ end) in a final volume of 20 μl. The conditions of the PCR cycles for the quantification of the 1-LTR bands are the following: denaturation step for 8 min followed by 40 cycles (95° C. for 10 s, 60° C. for 10 s, and 72° C. for 25 s). The number of copies of 1-LTR bands was determined by reference to a calibration curve prepared by amplifying quantities ranging from 100 to 10^5 copies of p1-LTR.
# (§1) The bands at 2-LTR are amplified by the primers flanking the LTR-LTR junction (HIVF and HIVR1 primers) (Brussel & Sonigo (2003) Journal of Virology 77:10119-10124). The viral DNA integrated is quantified by Alu-PCR (Brussel & Sonigo (2003) Journal of Virology 77:10119-10124). The U5-gag sequences, the 2-LTR junctions as well as the specific amplification of the integrated DNA are amplified in duplicate starting from 1/50 of the extraction of cell DNA. The number of copies is normalized per μg of DNA by measuring the quantity of β-globin gene in 1/50 of the DNA extract (Table 1).
# [4] = tested on: maturation (3′-processing) of the linear viral DNA of HIV-1 in CEM cells; assay: Quantification of mature and non-mature linear viral DNA by LM-PCR after infection of CEM cells; assay type: cell-based
# [5] = tested on: integration of HIV-1 viral DNA in infected cells; assay: Quantification of integrated viral DNA by Alu-PCR in infected cells; assay type: cell-based; details: WT virus, 500 nM raltegravir, FIG. 3D
# Source text: as §1
SMILES,IC50 (recombinant integrase) [nM],efficacy of the maturation reaction influenced or not [1],effect on the maturation step [2],maturation efficacy [2],effect on maturation (maturation reaction),lowest concentration completely inhibiting viral integration (viral integration) [nM],IC50 (viral integration) [nM],2 LTR bands as share of the viral forms [3] [%],accumulation of 2-LTR or 1-LTR bands on varying the concentration [3],"percentage of mature viral DNA ([4]; wild-type integrase virus, 20 μM FZ41 at the time of infection, 20 hours post-infection (75% without compound)) [%]",maturation activity / maturation efficacy ([2]; 5 μM inhibitor) [%],"quantity of linear viral DNA (mature and non-mature), compared with WT ([4]; 500 nM raltegravir, achieved 8 hours post-infection)","quantity of mature viral DNA with or without raltegravir ([4]; WT virus, 500 nM raltegravir)",detection of integrated viral DNA [5]
"C[C@@H]1CCO[C@H]2Cn3cc(C(=O)NCc4ccc(F)cc4F)c(=O)c(O)c3C(=O)N12 [DTG, dolutegravir]",2000,influenced,not affected,approximately 40%,significantly inhibit maturation,500,2,~40,does not lead to an increase,,,,,
"COc1cc2c(cc1Cc1cccc(Cl)c1F)c(=O)c(C(=O)O)cn2[C@H](CO)C(C)C [EVG, elvitegravir]",,influenced,not affected,approximately 40%,significantly inhibit maturation,500,2,~40,does not lead to an increase,,,,,
COc1cc(/C=C/c2ccc3ccc(C(=O)O)c(O)c3n2)cc(O)c1O [FZ41],,,,,,,,,,28,,,,
"Cc1nnc(C(=O)NC(C)(C)c2nc(C(=O)NCc3ccc(F)cc3)c(O)c(=O)n2C)o1 [RAL, raltegravir]",,not,not affected,,,500,8,,,,80,the same,similar,inhibition of the detection of integrated viral DNA
